Source: US4175081A, “5-Substituted thiadiazole ureas” (priority 1977, dated 1979)

Experiments:
Barnyard grass (BG) [1] = test: Pre-emergence herbicide test; assay type: in vivo; settings: Echinochloa crus-galli, 336 h, 8 lb/acre, two weeks after treatment
In short: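 Greenhouse pre-emergence spray test: pots seeded one day before treatment received compound at rates of 8 or 4 lb/acre (38 gal/acre). Visual injury/control scores for Echinochloa crus-galli taken at two weeks, with watering by sub-irrigation only.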

Turnip (TP) [2] = test: Post-emergence herbicide test; assay type: in vivo, Brassica sp.; settings: Brassica rapa, post-emergence, 336 h; 8 lb/acre; two weeks after treatment
In short: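 A greenhouse post-emergence herbicide test on turnip. Seeds were sown on the surface of potting soil in 3' plastic pots, lightly covered with screened soil and watered from below. Planting was timed so seedlings had 1 or 2 true leaves above the cotyledons at spraying, done in a hood with a fixed nozzle. Control or injury was scored by eye after two weeks.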

Crabgrass (CG) [3] = test: Pre-emergence herbicide test; assay type: in vivo, Digitaria sanquinalis; settings: Digitaria sanguinalis, pre-emergence, 336 h; 8 lb/acre; two weeks after treatment
In short: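 Crabgrass (Digitaria sanquinalis) was surface seeded in 3' plastic pots of potting soil, covered with screened soil, and watered by sub-irrigation in greenhouse trays. Pots were seeded one day before spraying in a hood with a moving belt and fixed nozzle. Plants stayed in the greenhouse on sub-irrigation, and pre-emergence control was rated visually two weeks after treatment.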

Turnip (TP) [4] = test: Pre-emergence herbicide test; assay type: in vivo, Brassica sp.; settings: Brassica rapa, pre-emergence, 336 h; 8 lb/acre; two weeks after treatment
In short: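 In this pre-emergence greenhouse test, turnip was seeded on the surface of potting soil in 3' plastic pots, lightly covered with screened soil, and watered from below. One day later the pots were sprayed in a belt-fed spray hood. Watering continued only by sub-irrigation, and percent control was visually scored two weeks after treatment.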

Amaranth pigweed (PW) [5] = test: Post-emergence herbicide test; assay type: in vivo, Amaranthus retroflexus; settings: 336 h, 8 lb/acre, two weeks after treatment
In short: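 Visual injury or control ratings were made two weeks after spraying, with greenhouse watering by sub-irrigation only. Treatment was post-emergence, when pigweed seedlings had 1 or 2 true leaves, at 8 lbs active compound per acre (4 lbs/acre formulations also made) in a 38 gallons-per-acre spray volume.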

Amaranth pigweed (PW) [6] = test: Pre-emergence herbicide test; assay type: in vivo, Amaranthus retroflexus; settings: 336 h, 8 lb/acre, two weeks after treatment
In short: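 Visual injury or control ratings were made at two weeks on pre-emergence pots, sub-irrigated in the greenhouse. Seeds were sown a day before a hood spray delivering 8 lbs/acre (or 4 lbs/acre) of compound in 38 gallons per acre.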

Cotton (CT) [7] = test: Pre-emergence herbicide test; assay type: in vivo, Gossypium hirsutum var. DPL smooth leaf; settings: Gossypium hirsutum, 336 h, 8 lb/acre, two weeks after treatment
In short: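 Visual injury/control ratings were taken at two weeks post-spray. Pots seeded a day earlier received compound pre-emergence at 8 lbs/acre, or 4 lbs/acre, in a 38 gallon/acre spray volume, and were then held in the greenhouse, watered only from below.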

Bean (BN) [8] = test: Pre-emergence herbicide test; assay type: in vivo, Phaseolus vulgaris var. Black Valentine; settings: Phaseolus vulgaris, 336 h, 8 lb/acre, two weeks after treatment
In short: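 Visual injury/control ratings were taken two weeks post-spray on sub-irrigated Phaseolus vulgaris var. Black Valentine. Pots were sown a day before treatment. Pre-emergence spray delivered 8 lbs actual compound per acre (or 4 lbs/acre) at 38 gallons per acre.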

Johnson grass (JG) [9] = test: Post-emergence herbicide test; assay type: in vivo, Sorgum helepense; settings: Sorghum halepense, 336 h, 8 lb/acre, two weeks after treatment
In short: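 Visual injury or control scores taken 2 weeks after a post-emergence spray of pot-grown plants. Application was 8 lbs/acre (or 4 lbs/acre) in 38 gal/acre. Plants were held in the greenhouse with sub-irrigation only.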

Corn (CN) [10] = test: Pre-emergence herbicide test; assay type: in vivo; settings: Zea mays, 336 h, 8 lb/acre, two weeks after treatment
In short: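 Visual injury/control ratings were made 2 weeks post-spray on corn pots seeded (4 seeds, seed-diameter depth) the day before treatment. Application was a belt-hood spray of 38 gal/acre delivering 8 lbs active per acre, with a 4 lbs/acre rate also formulated. Watering was by sub-irrigation throughout.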

[11] = test system: Yellow foxtail grass (YF); test: Post-emergence herbicide test; assay type: in vivo, Setaria glauca; settings: Setaria, 336 h, 8 lb/acre, two weeks after treatment
Method: (§1) Yellow foxtail grass (YF)--Setaria glauca
(§2) All crop and weed species were planted individually in 3' plastic pots containing potting soil. Four seeds each of corn, cotton, and snapbeans were seeded to a depth equal to the diameter of the seed. All other species were surface seeded and sprinkled with screened soil in an amount sufficient to cover the seed. Immediately after planting, all pots were watered by sub-irrigation in greenhouse trays. Pots for the pre-emergence phase were seeded one day before treatment.
Planting dates for the post-emergence phase were varied so that all seedlings would reach the desired stage of development simultaneously. The proper stage of seedling development for treatment in the post-emergence phase is as follows:
(§3) Compounds were tested at rates of application equivalent to 8 lbs. of actual compound per acre in a spray volume of 38 gallons per acre. Spray hood constants required to deliver the above volume are as follows:
(§4) Formulations for spray applications were prepared in 50 ml volumes with the following three components:
(§5) Formulations for the 4 lbs/acre rate were prepared by adjusting the amount of active ingredient accordingly.
(§6) Spray applications were made in a hood containing a removable belt and fixed spray nozzle. For passage through the spray hood, one pot of each specie (pre-emergence phase) was placed on the rear half of the flat. Treatments were removed to the greenhouse after spraying. Watering during the observation period was done only by sub-irrigation.
(§7) Two weeks after treatment, pre- and post-emergence injury or control was visually rated, and the results were as shown in the following tables. Pre-emergence data are provided in TABLE III and post-emergence data are provided in TABLE IV, for compounds having the formula illustrated in TABLE I. Correspondingly, pre-emergence and post-emergence data, respectively, are set forth in TABLES V AND VI, for compounds having the formula illustrated in TABLE II.

Barnyard grass (BG) [12] = test: Post-emergence herbicide test; assay type: in vivo; settings: Echinochloa crus-galli, 336 h, 8 lb/acre, two weeks after treatment
In short: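 Greenhouse pot-grown barnyard grass seedlings sprayed post-emergence at 8 lbs active compound per acre (some at 4 lbs/acre) in 38 gallons per acre, then sub-irrigated. Injury or control rated visually two weeks after treatment.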

Cotton (CT) [13] = test: Post-emergence herbicide test; assay type: in vivo, Gossypium hirsutum var. DPL smooth leaf; settings: Gossypium hirsutum, post-emergence, 336 h; 8 lb/acre; two weeks after treatment
In short: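 This greenhouse post-emergence test measured how well spray treatments controlled cotton. Seedlings of Gossypium hirsutum var. DPL smooth leaf, with expanded cotyledons and a first true leaf 1' in length, were sprayed with 50 ml formulations in a belt-fed spray hood. They were then returned to the greenhouse and watered only by sub-irrigation. Injury was scored visually as % control after two weeks.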

Crabgrass (CG) [14] = test: Post-emergence herbicide test; assay type: in vivo, Digitaria sanquinalis; settings: Digitaria sanguinalis, post-emergence, 336 h; 8 lb/acre; two weeks after treatment
In short: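 Crabgrass (Digitaria sanquinalis) was surface seeded individually in 3' plastic pots of potting soil, covered with screened soil, and watered by sub-irrigation in greenhouse trays. Planting was staggered so seedlings reached the target stage together. Post-emergence sprays were applied in a hood with a removable belt and fixed nozzle, and control was visually rated two weeks after treatment.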

Bean (BN) [15] = test: Post-emergence herbicide test; assay type: in vivo, Phaseolus vulgaris var. Black Valentine; settings: Phaseolus vulgaris, post-emergence, 336 h; 8 lb/acre; two weeks after treatment
In short: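 Bean seedlings (Phaseolus vulgaris var. Black Valentine) were grown in potting soil in 3' pots until the primary leaves expanded. They were then sprayed under a hood with a removable belt and fixed nozzle, using 50 ml formulations. Afterward they were returned to the greenhouse and watered only by sub-irrigation. Percent control was judged visually two weeks after treatment.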

Corn (CN) [16] = test: Post-emergence herbicide test; assay type: in vivo; settings: Zea mays, 336 h, 8 lb/acre, two weeks after treatment
In short: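 Greenhouse seedlings grown in potting soil and sprayed post-emergence at 8 lbs compound/acre (formulations also made for 4 lbs/acre) in 38 gallons/acre spray volume. Watering by sub-irrigation only. Injury or control rated visually two weeks after treatment.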

Johnson grass (JG) [17] = test: Pre-emergence herbicide test; assay type: in vivo, Sorgum helepense; settings: Sorghum halepense, 336 h, 8 lb/acre, two weeks after treatment
In short: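 Visual injury or control rating two weeks post-treatment, after pre-emergence spray of 8 or 4 lbs active per acre (38 gal/acre) onto pots sown the previous day. Greenhouse watering by sub-irrigation only.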

[18] = test system: Yellow foxtail grass (YF); test: Pre-emergence herbicide test; assay type: in vivo, Setaria glauca; settings: Setaria, 336 h, 8 lb/acre, two weeks after treatment
Method: as §1, §2, §3, §4, §5, §6, §7

Structure (SMILES) | pest or weed control at 8966.8 g/ha (Barnyard grass (BG) [1]) [%] | pest or weed control at 8966.8 g/ha (Turnip (TP) [2]) [%] | pest or weed control at 8966.8 g/ha (Crabgrass (CG) [3]) [%] | pest or weed control at 8966.8 g/ha (Turnip (TP) [4]) [%] | pest or weed control at 8966.8 g/ha (Amaranth pigweed (PW) [5]) [%] | pest or weed control at 8966.8 g/ha (Amaranth pigweed (PW) [6]) [%] | pest or weed control at 8966.8 g/ha (Cotton (CT) [7]) [%] | pest or weed control at 8966.8 g/ha (Bean (BN) [8]) [%] | pest or weed control at 8966.8 g/ha (Johnson grass (JG) [9]) [%] | pest or weed control at 8966.8 g/ha (Corn (CN) [10]) [%] | pest or weed control at 8966.8 g/ha [11] [%] | pest or weed control at 8966.8 g/ha (Barnyard grass (BG) [12]) [%] | pest or weed control at 8966.8 g/ha (Cotton (CT) [13]) [%] | pest or weed control at 8966.8 g/ha (Crabgrass (CG) [14]) [%] | pest or weed control at 8966.8 g/ha (Bean (BN) [15]) [%] | pest or weed control at 8966.8 g/ha (Corn (CN) [16]) [%] | pest or weed control at 8966.8 g/ha (Johnson grass (JG) [17]) [%] | pest or weed control at 8966.8 g/ha [18] [%]
CCc1nnc(NC(=O)NC)s1 [Example 3, 1-Methyl-3-[5-Ethyl-2-(1,3,4-Thiadiazolyl)] Urea] | 10 | 100 | 10 | 70 | 100 | 70 | 50 | 90 | 20 | 100 | 20 | 20 | 90 | 20 | 60 | 20 | 20 | 
CCCNC(=O)Nc1nnc(C(F)(F)F)s1 [Example 10] | 10 | 60 | 20 | 10 | 100 |  | 80 | 80 | 30 | 50 | 20 | 40 | 60 | 50 | 50 | 40 | 20 | 20
CC(C)NC(=O)Nc1nnc(C(F)(F)F)s1 [Example 11] | 10 | 60 | 20 | 10 | 100 |  | 80 | 30 | 30 | 80 | 20 | 40 | 60 | 50 | 50 | 40 | 30 | 10
